The target of data set [1] is T1, Ectonucleotide pyrophosphatase/phosphodiesterase family member 1 (Homo sapiens, UniProt P22413).
T1 sequence (P22413 whole entry): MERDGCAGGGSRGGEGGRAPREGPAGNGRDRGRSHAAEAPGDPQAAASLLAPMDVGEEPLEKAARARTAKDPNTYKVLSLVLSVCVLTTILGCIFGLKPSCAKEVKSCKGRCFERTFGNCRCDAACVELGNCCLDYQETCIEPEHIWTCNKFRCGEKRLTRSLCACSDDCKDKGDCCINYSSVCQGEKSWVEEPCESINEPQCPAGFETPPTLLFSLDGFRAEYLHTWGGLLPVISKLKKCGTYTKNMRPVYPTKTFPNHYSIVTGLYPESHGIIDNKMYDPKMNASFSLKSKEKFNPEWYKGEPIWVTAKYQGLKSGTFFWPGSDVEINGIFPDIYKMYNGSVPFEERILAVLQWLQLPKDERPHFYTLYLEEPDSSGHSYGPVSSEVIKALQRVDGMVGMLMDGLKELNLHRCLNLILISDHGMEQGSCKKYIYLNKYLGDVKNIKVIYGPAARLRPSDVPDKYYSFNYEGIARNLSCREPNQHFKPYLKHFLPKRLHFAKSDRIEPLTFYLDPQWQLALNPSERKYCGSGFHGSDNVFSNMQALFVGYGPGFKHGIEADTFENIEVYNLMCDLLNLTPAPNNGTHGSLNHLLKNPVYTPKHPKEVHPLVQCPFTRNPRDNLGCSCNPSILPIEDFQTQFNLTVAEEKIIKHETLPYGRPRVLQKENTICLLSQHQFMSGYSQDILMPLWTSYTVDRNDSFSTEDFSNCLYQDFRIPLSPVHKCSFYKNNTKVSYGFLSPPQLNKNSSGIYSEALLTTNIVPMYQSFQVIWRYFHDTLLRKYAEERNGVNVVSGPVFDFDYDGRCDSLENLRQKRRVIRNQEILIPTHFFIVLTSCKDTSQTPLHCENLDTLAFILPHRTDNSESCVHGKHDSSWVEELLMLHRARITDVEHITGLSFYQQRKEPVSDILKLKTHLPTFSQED
In words: Inhibition of recombinant human ENPP1 transfected in HEK293T cells using cGAMP as substrate at pH 7.5 measured after 3.5 hrs by luminescence based AMP-glo assay. The format is cell-based.

Data set [2] concerns the target Voltage-gated inwardly rectifying potassium channel KCNH2 (Homo sapiens, UniProt Q12809). Kind of data set: Inhibition of hERG expressed in CHO cells by QPatch automated patch-clamp assay. The class given is toxicity, cell-based. (In general: Block of hERG is tested as a sign of cardiac risk.)
A short description of data set [3]: AUC(0 to t) in Sprague-Dawley rat at 10 mg/kg, iv measured upto 24 hrs by LC-MS/MS analysis. Particulars: in vivo. The class given is ADME, organism-based.
The nature of data set [4]: Apparent permeability across basal to apical side in human Caco-2 cells at 10 uM by LC-MS/MS analysis. The format is ADME, cell-based. On the technique in general: Passage across Caco-2 layers is used to estimate intestinal permeability.
Data set [5] is described as follows: Efflux ratio of apparent permeability from basolateral to apical side over apical to basolateral side in human Caco-2 cells at 10 uM by LC-MS/MS analysis. The format is ADME, cell-based.
For data set [6], the system named is CT26. Kind of data set: Antitumor activity against mouse CT26 cells allografted in female BALB/c mouse assessed as tumor growth inhibition at 200 mg/kg QD, ip measured every 2 days for 12 days relative to control. The class given is functional. The note with it: CT26, 288 h, time 12 day, read-out: TGI.
In data set [7] the test system is CT26. In words: Antitumor activity against mouse CT26 cells allografted in female BALB/c mouse assessed as tumor growth inhibition at 200 mg/kg QD, ip measured every 2 days for 12 days in presence of anti-PD-L1 antibody relative to control. The format is functional. Particulars: CT26, 288 h, time 12 day, read-out: TGI.
The nature of data set [8]: Toxicity in female BALB/c mouse allografted with mouse CT26 cells assessed as change in body weight at 200 mg/kg QD, ip measured every 2 days for 12 days. The note with it: in vivo, 288 h, time 12 day. The class given is organism-based.
Data set [9] is described as follows: Toxicity in female BALB/c mouse allografted with mouse CT26 cells assessed as change in body weight at 200 mg/kg QD, ip in presence of anti-PD-L1 antibody measured every 2 days for 12 days. The format is organism-based. The note with it: in vivo, 288 h, time 12 day.
Data set [10] has as its system CT26. In words: Antitumor activity against mouse CT26 cells allografted in female BALB/c mouse assessed as increase in infiltration of CD8+T cells in tumor tissue at 200 mg/kg QD, ip in presence of anti-PD-L1 antibody measured every 2 days for 12 days by immunohistochemical analysis. Particulars: time 12.0 day. The class given is functional, organism-based.
In data set [11] the test system is CT26. In words: Antitumor activity against mouse CT26 cells allografted in female BALB/c mouse assessed as decrease in M2-type macrophages in tumor tissue at 200 mg/kg QD, ip measured every 2 days for 12 days by immunohistochemical analysis. The format is functional, organism-based. The note with it: time 12.0 day.
The subject of data set [12] is CT26. Kind of data set: Antitumor activity against mouse CT26 cells allografted in female BALB/c mouse plasma assessed as increase in IP-10 secretion in tumor tissue at 200 mg/kg QD, ip in presence of anti-PD-L1 antibody measured every 2 days for 12 days by ELISA analysis. The note with it: time 12.0 day. The class given is functional, organism-based. A general note: An ELISA detects its analyte on a solid surface through an enzyme-linked reagent.

Another data set relates to THP1-Dual. In words: Cytotoxicity against human THP1-Dual cells assessed as effect on cell viability at 3 to 1000 nM followed by addition of conditioned medium containing 36 hrs compound pretreated human MDA-MB-231 cells measured after 24 hrs by celltiter-glo assay. The class given is functional, cell-based. The note with it: dose 3-1000 nM, time 60.0 hrs.
The subject of another data set is THP-1. In words: Activation of STING signalling pathway in human THP-1 cells assessed as increase in IFNB1 expression measured after 18 hrs in presence of cGAMP by qPCR analysis. The format is cell-based. Particulars: filed as activator, dose 3-1000 nM.
For another data set, the species on record is Homo sapiens. In words: Inhibition of TLK (unknown origin) at 1 uM by KINOMEscan assay.
Data set [13] can be described thus: Inhibition of TK (unknown origin) at 1 uM by KINOMEscan assay. The note with it: Homo sapiens.
The subject of data set [14] is CT26. In words: Antitumor activity against mouse CT26 cells allografted in female BALB/c mouse assessed as increase in M1-type macrophages in tumor tissue at 200 mg/kg QD, ip in presence of anti-PD-L1 antibody measured every 2 days for 12 days by immunofluorescence analysis. The class given is functional, organism-based. Particulars: time 12.0 day.

By IC50 is commonly meant the concentration that inhibits the measured activity by half. In general, AUC(0-t) refers to the area under the concentration-time curve up to a stated or last time point. Low values mean less exposure, high ones more exposure. Broadly, the Papp B→A is the apparent permeability from the basolateral to the apical side of a cell layer. By efflux ratio is commonly meant the permeability from basolateral to apical divided by that in the opposite direction, in the common usage.

The source made the active and inactive calls. No cut-off for these calls is given here. Some results are limits rather than exact numbers.

Sequence of Voltage-gated inwardly rectifying potassium channel KCNH2 (Q12809 whole entry): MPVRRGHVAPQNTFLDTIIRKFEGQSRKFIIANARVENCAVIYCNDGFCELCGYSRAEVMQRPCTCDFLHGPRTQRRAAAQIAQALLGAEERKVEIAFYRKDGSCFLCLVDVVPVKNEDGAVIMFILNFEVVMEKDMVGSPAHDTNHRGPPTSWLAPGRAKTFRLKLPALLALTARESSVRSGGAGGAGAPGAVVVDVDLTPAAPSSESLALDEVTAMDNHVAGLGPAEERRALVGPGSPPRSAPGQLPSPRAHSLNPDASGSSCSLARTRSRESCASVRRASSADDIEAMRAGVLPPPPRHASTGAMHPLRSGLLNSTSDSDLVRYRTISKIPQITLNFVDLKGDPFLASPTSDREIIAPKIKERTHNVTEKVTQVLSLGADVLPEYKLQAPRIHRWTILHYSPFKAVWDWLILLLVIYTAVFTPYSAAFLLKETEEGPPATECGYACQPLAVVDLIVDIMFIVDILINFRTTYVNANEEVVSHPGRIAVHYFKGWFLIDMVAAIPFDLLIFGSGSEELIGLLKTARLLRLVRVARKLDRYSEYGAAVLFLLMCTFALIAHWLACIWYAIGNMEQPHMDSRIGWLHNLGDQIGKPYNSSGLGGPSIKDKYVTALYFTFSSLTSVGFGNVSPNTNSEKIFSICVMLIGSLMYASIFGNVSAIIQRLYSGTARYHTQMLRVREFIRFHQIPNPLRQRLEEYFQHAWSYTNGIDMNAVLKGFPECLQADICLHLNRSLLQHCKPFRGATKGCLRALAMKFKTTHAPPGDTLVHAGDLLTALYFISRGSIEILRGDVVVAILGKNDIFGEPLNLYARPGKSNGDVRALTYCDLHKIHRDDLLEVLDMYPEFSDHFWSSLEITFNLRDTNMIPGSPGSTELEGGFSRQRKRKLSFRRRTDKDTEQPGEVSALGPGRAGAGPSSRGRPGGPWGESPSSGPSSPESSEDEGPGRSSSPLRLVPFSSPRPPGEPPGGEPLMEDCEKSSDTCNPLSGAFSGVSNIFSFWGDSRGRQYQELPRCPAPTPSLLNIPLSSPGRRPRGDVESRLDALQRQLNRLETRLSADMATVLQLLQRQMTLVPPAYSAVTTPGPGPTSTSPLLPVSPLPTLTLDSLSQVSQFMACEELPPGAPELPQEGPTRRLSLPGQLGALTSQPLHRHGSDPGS

Turning to `COc1cccc2c(N3CCC(O)(CNS(N)(=O)=O)CC3)ncnc12`, the IC50 was 8.05 nM in data set [1] and more than 40000 nM in data set [2]. This molecule also came in with an AUC(0-t) at 24 h in [3] of 2030 ng·h/mL. The Papp B→A at 10 µM in data set [4] was determined as 2.13 ×10⁻⁶ cm/s. Moreover, the efflux ratio at 10 µM in data set [5] turned out to be 20.1. For the same molecule, the results for the inhibition in vivo at 200 mg/kg in the data set on CT26 [6] and with CT26 [7] were 39.9% and 64.6%, respectively. Also, the figures for the Activity result (in [8]; in [9]; in the data set with THP-1) were “Non-toxic”, “Non-toxic” and “Dose-dependent-effect”, respectively. For the same molecule, the result in the data set with CT26 [10], in the data set with CT26 [11], in the data set on CT26 [12], in the data set on THP1-Dual and in the data set with CT26 [14] was Active. Besides, the inhibition result (in the data set filed under Homo sapiens; in data set [13]) was “inactive” throughout.

Source of the values: ChEMBL document CHEMBL6114998, “Design, Synthesis, and Pharmacological Evaluation of Quinazoline and Quinoline Derivatives as Potent ENPP1 Inhibitors for Cancer Immunotherapy” (J Med Chem, 2025).
